# Measured values published in patent US20190135834A1, “5-SUBSTITUTED AZABENZIMIDAZOLE DERIVATIVE HAVING ???? ACTIVATION ACTION” (Shionogi & Co., Ltd., priority 2016, published 2019).
# Target: T1, Human AMPK α2ß2γ1 (Homo sapiens, UniProt O43741+P54646)
# T1 construct: The full length cDNAs of human AMPK ß2 (NM_005399.3) and human AMPK α2 (NM_006252.3); The full length cDNAs of human AMPK ß2 (NM_005399.3); 6xHis (N); made in house; host or cells: Escherichia coli BL21 CodonPlus (DE3)-RIL
# Test: Test Example 2: evaluation of an activator for AMP-activated protein kinase (AMPK), LabChip mobility shift assay with CaMKK2-phosphorylated enzyme
# Format: biochemical
# Details: for EC150 (compound concentration showing 150% relative to the control (100%)): FL-Peptide 7 substrate, 25° C., 2 hours; for Emax / Emax (maximum rate of increase in activity within the measurement range): relative to control (100%); for Emax: read-out: Emax (maximum rate of increase in activity within the measurement range)
# Method: The full length cDNAs of human AMPK ß2 (NM_005399.3) and human AMPK α2 (NM_006252.3) were inserted into the MCS1 and MCS2 of the pETDuet-1 vector to prepare a human AMPK ß2 and human AMPK α2 (6× His tag at the 5′ terminus) expressing plasmid. The plasmid was cotransfected with an expression plasmid, in which the full length cDNA of human AMPK γ1 (NM_002733.3) had been inserted into pET28b(+), into BL21 CodonPlus (DE3)-RIL to obtain an expression strain. The expression strain was cultured in TB medium, followed by induction with 0.5 mM IPTG, and cultured at 25° C. for 3 hours and then harvested. After ultrasonication, supernatant was collected and applied to Histrap FF column (GE) and RESOURCE Q column (GE) to prepare 12.5 mg of purified sample containing three types of subunit from 1.8 L of broth.
# Preparation method of human CaMKK2 used to impart activity to AMPK An expression vector, in which the full length cDNA of human CAMKK ß (NM_172226.1) had been inserted into pGEX-6P-3, was transfected into BL21 Star (DE3). The expression strain was cultured in TB medium, followed by induction with 0.5 mM IPTG, and cultured at 25° C. for 3 hours and then harvested. After ultrasonication, supernatant was collected and applied to GSTrap FF column (GE) to prepare 14 mg of GST-fused CAMKK ß from 720 ml of broth.
# Thus, phosphorylation treatment was carried out as pretreatment.
# Human AMPK α2ß2γ1 in an amount to give a conversion rate of approximately 10% by reaction for 2 hours, and CaMKK2 in an amount capable of sufficiently imparting activity to AMPK for one hour were mixed in a buffer solution consisting of a 50 mM HEPES-NaOH buffer solution (pH 7.0), 100 mM NaCl, 5 mM magnesium chloride, 0.1% bovine serum albumin, 0.2 mM sodium orthovanadate(V), 1 mM ethylene glycol-bis(2-aminoethyl ether)-N,N,N′,N′-tetraacetic acid (EGTA), 5 mM disodium ß-glycerophosphate, 1 mM dithiothreitol and 0.2 mM ATP, and the resulting liquid was left to stand at 25° C. for 1 to 1.5 hours to sufficiently phosphorylate AMPK.
# After that, to the enzyme liquid, which had been subjected to phosphorylation treatment, a compound dissolved in DMSO was added so as to have a 1% DMSO concentration. The resulting liquid was left to stand for 10 minutes.
# To the liquid, a substrate solution consisting of a 50 mM HEPES-NaOH buffer solution (pH 7.0), 100 mM NaCl, 10 mM magnesium chloride, 0.1% bovine serum albumin, 0.2 mM sodium orthovanadate(V), 1 mM ethylene glycol-bis(2-aminoethyl ether)-N,N,N′,N′-tetraacetic acid (EGTA), 5 mM disodium ß-glycerophosphate, 2 mM dithiothreitol, 0.4 mM ATP and 3 μM FL-Peptide 7 (manufactured by Caliper Life Sciences, Inc.) was added in equal amount (10 μl in total). The resulting liquid was allowed to react at 25° C. for 2 hours, and 10 μl of 20 mM EDTA was added thereto to stop the reaction.
# To detect phosphorylated fluorescent substrates, the reaction mixture was applied to a measuring device, LabChip EZ Reader II manufactured by Caliper Life Science, Inc., for detecting fluorescence by using differences in mobility due to differences in charge. The setting conditions for the device were pressure, −1.5 PSI; upstream voltage, −2250 V; downstream voltage, −400 V; post sample buffer sip time, 40 seconds; final delay, 120 seconds; and peak order, Product First.
# A conversion rate was calculated from the peak heights of the obtained substrate and product. The conversion rate when not containing a compound was used as a control, and a concentration dependent curve was made by plotting the rate of increase in activity to the control at each concentration of a compound.
# T1 sequence (P54646 whole entry): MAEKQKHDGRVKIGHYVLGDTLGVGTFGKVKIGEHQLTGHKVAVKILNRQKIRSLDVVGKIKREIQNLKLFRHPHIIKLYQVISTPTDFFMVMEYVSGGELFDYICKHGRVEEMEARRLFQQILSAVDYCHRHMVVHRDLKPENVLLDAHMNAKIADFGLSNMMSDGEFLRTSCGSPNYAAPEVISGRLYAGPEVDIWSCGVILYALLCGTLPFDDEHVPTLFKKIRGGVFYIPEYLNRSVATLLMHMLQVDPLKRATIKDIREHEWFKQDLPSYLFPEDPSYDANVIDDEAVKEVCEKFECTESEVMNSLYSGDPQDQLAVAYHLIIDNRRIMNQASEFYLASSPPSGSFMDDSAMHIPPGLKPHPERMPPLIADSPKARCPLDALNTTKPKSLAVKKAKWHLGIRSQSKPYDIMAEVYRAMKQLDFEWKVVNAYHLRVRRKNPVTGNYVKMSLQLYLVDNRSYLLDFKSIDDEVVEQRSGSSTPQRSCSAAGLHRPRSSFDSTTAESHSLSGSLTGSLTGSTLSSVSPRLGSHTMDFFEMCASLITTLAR
# T1 sequence (O43741 whole entry): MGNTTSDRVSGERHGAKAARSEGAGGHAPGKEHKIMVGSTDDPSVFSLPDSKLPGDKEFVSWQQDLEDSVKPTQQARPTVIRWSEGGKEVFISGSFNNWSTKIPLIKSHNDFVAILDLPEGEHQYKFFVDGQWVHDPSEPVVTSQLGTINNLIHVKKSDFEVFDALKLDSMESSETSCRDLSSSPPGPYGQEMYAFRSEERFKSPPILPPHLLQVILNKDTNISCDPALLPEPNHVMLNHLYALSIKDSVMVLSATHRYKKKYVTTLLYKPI
# T1 sequence (P54619 whole entry partner): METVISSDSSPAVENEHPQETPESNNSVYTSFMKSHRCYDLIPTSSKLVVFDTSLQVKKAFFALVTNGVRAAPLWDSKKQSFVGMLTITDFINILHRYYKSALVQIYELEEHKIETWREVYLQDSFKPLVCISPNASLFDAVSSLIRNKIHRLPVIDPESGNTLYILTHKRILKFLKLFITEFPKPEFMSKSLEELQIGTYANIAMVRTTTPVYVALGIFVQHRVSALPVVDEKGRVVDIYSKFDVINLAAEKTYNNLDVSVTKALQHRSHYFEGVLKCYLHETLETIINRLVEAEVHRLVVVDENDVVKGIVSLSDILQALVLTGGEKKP
SMILES,EC150 (compound concentration showing 150% relative to the control (100%)) [nM],Emax [%],Emax (maximum rate of increase in activity within the measurement range) [%]
"COC/C=C/c1cc(F)c2c(c1)CCC2Oc1nc2nc(O[C@@H]3CO[C@H]4[C@@H]3OC[C@H]4O)[nH]c2cc1Cl (single isomer, unassigned) [Compound I-1-19]",3.5,404,
"Cn1cc(-c2cc(F)c3c(c2)CCC3Oc2nc3nc(O[C@@H]4CO[C@H]5[C@@H]4OC[C@H]5O)[nH]c3cc2Cl)cn1 (single isomer, unassigned) [Compound I-1-20]",4.3,403,
O[C@@H]1CO[C@H]2[C@@H]1OC[C@H]2Oc1nc2nc(NC3CCc4cc(-c5cnccn5)cc(F)c43)c(Cl)cc2[nH]1 (stereo partly shown) [Compound I-1-111],4.5,424,
CC(C)(C)OCCOc1cc(F)c2c(c1)CCC2Nc1nc2nc(O[C@@H]3CO[C@H]4[C@@H]3OC[C@H]4O)[nH]c2cc1Cl (stereo partly shown) [Compound I-2-43],31,612,
OCCOc1cc(F)c2c(c1)CCC2Nc1nc2nc(O[C@@H]3CO[C@H]4[C@@H]3OC[C@H]4O)[nH]c2cc1Cl (stereo partly shown) [Compound I-1-32],2.3,389,
Cn1cc(-c2cc(F)c3c(c2)CCC3Nc2nc3nc(O[C@@H]4CO[C@H]5[C@@H]4OC[C@H]5O)[nH]c3cc2Cl)ccc1=O (stereo partly shown) [Compound I-1-106],1.4,462,
Cn1cc(-c2cc(F)c3c(c2)CC[C@@H]3Nc2nc3nc(O[C@@H]4CO[C@H]5[C@@H]4OC[C@H]5O)[nH]c3cc2Cl)cc(F)c1=O [Compound I-2-68],1.8,600,
O[C@@H]1CO[C@H]2[C@@H]1OC[C@H]2Oc1nc2nc(NC3CCc4cc(OCCOC5CCC5)cc(F)c43)c(Cl)cc2[nH]1 (stereo partly shown) [Compound I-2-41],10,604,
CS(=O)(=O)NCCOc1cc(F)c2c(c1)CCC2Nc1nc2nc(O[C@@H]3CO[C@H]4[C@@H]3OC[C@@H]4F)[nH]c2cc1Cl (stereo partly shown) [Compound I-2-35],10,679,
CN(C)c1ncc(-c2cc(F)c3c(c2)CC[C@@H]3Nc2nc3nc(O[C@@H]4CO[C@H]5[C@@H]4OC[C@H]5O)[nH]c3cc2Cl)cn1 [Compound I-2-62],9.4,638,
O[C@@H]1CO[C@H]2[C@@H]1OC[C@H]2Oc1nc2nc(NC3CCc4cc(O[C@H]5CCOC5)cc(F)c43)c(Cl)cc2[nH]1 (stereo partly shown) [Compound I-2-50],1.9,678,
O[C@@H]1CO[C@H]2[C@@H]1OC[C@H]2Oc1nc2nc(N[C@H]3CCc4cc(-c5cncnc5)cc(F)c43)c(Cl)cc2[nH]1 [Compound I-2-61],3.1,649,
COCC1CC1c1cc(F)c2c(c1)CC[C@@H]2Nc1nc2nc(O[C@@H]3CO[C@H]4[C@@H]3OC[C@H]4O)[nH]c2cc1Cl (stereo partly shown) [Compound I-2-02],2.4,557,
CC(C)OCCOc1cc(F)c2c(c1)CCC2Nc1nc2nc(O[C@@H]3CO[C@H]4[C@@H]3OC[C@H]4O)[nH]c2cc1Cl (stereo partly shown) [Compound I-2-36],3.9,698,
O[C@@H]1CO[C@H]2[C@@H]1OC[C@H]2Oc1nc2nc(NC3CCc4cc(OCCN5CCCCC5)cc(F)c43)c(Cl)cc2[nH]1 (stereo partly shown) [Compound I-1-38],8,392,
COc1ccc(-c2cc(F)c3c(c2)CCC3Nc2nc3nc(O[C@@H]4CO[C@H]5[C@@H]4OC[C@H]5O)[nH]c3cc2Cl)cn1 (stereo partly shown) [Compound I-1-86],28,,379
O[C@@H]1CO[C@H]2[C@@H]1OC[C@H]2Oc1nc2nc(NC3CCc4cc(O[C@@H]5CCOC5)cc(F)c43)c(Cl)cc2[nH]1 (stereo partly shown) [Compound I-2-49],3.4,667,
O[C@@H]1CO[C@H]2[C@@H]1OC[C@H]2Oc1nc2nc(NC3CCc4cc(OCC(F)F)cc(F)c43)c(Cl)cc2[nH]1 (stereo partly shown) [Compound I-2-75],2.7,581,
O[C@@H]1CO[C@H]2[C@@H]1OC[C@H]2Oc1nc2nc(N[C@H]3CCc4cc(-c5cnn(C6COC6)c5)cc(F)c43)c(Cl)cc2[nH]1 [Compound I-2-74],1.5,609,
O[C@@H]1CO[C@H]2[C@@H]1OC[C@H]2Oc1nc2nc(NC3CCc4cc(OCCF)cc(F)c43)c(Cl)cc2[nH]1 (stereo partly shown) [Compound I-2-06],3.6,,707
COC/C=C/c1cc(F)c2c(c1)CCC2Nc1nc2[nH]c(O[C@@H]3CO[C@H](CO)C3)nc2cc1Cl (stereo partly shown) [Compound I-1-24],25,423,
Cc1cc(-c2cc(F)c3c(c2)CC[C@@H]3Nc2nc3nc(O[C@@H]4CO[C@H]5[C@@H]4OC[C@H]5O)[nH]c3cc2Cl)cnn1 [Compound I-2-45],2.1,711,
CS(C)(=O)=Nc1cc(F)c2c(c1)CC[C@@H]2Nc1nc2nc(O[C@@H]3CO[C@H]4[C@@H]3OC[C@H]4O)[nH]c2cc1Cl [Compound I-2-08],3.5,688,
O[C@@H]1CO[C@H]2[C@@H]1OC[C@H]2Oc1nc2nc(NC3CCc4cc(OC5CCOCC5)cc(F)c43)c(Cl)cc2[nH]1 (stereo partly shown) [Compound I-1-35],4.3,402,
O=C1CCCN1CCOc1cc(F)c2c(c1)CCC2Nc1nc2nc(O[C@@H]3CO[C@H]4[C@@H]3OC[C@H]4O)[nH]c2cc1Cl (stereo partly shown) [Compound I-1-98],3.6,,434
O[C@@H]1CO[C@H]2[C@@H]1OC[C@H]2Oc1nc2nc(NC3CCc4cc(NCC(F)(F)F)cnc43)c(Cl)cc2[nH]1 (stereo partly shown) [Compound I-1-70],21,384,
Cc1ccc(-c2cc(F)c3c(c2)CC[C@@H]3Nc2nc3nc(O[C@@H]4CO[C@H]5[C@@H]4OC[C@H]5O)[nH]c3cc2Cl)cn1 [Compound I-2-66],8.6,711,
COC/C=C/c1cc(F)c2c(c1)CC[C@@H]2Nc1nc2nc(O[C@@H]3CO[C@H]4[C@@H]3OC[C@H]4O)[nH]c2cc1Cl [Compound I-1-94],5.6,416,
O[C@@H]1CO[C@H]2[C@@H]1OC[C@H]2Oc1nc2nc(NC3CCc4cc(OCCOCC(F)(F)F)cc(F)c43)c(Cl)cc2[nH]1 (stereo partly shown) [Compound I-2-05],6,680,
